From patent publication US20110146678A1, “PROCESS FOR IMPROVING CRYSTALLINITY” (priority 2008, published 2011)

How the values were obtained:
Assay type in all cases: physicochemical
[1] = Particle size by Sympatec HELOS laser diffraction / optical microscopy; conditions: for D(10) / D(50) / D(90): Sympatec HELOS laser diffraction
Description: The particle size can be measured by laser diffraction techniques: Light from a laser is shone into a cloud of particles, which are suspended in a transparent gas such as air. The particles scatter the light; smaller particles scattering the light at larger angles than bigger particles. The scattered light can be measured by a series of photodetectors placed at different angles. This is known as the diffraction pattern for the sample. The diffraction pattern can be used to measure the size of the particles using well documented light scattering theory. The particles are assumed to be spherical but few particles are actually spherical. The particle diameters are calculated from the measured volume of the particle, but assume a sphere of equivalent volume.
Budesonide (5 g) was dissolved in 100 mL of dichloromethane. The samples of budesonide powder collected in the ultrasonic chamber were produced using a Büchi-290 laboratory-scale spray dryer […], Büchi, Switzerland). The solution was atomized using nitrogen at 7 bar flowing at approximately at 10 Lpm (Litre/minute). The aspirator was set at 100% and flow rate of solution was set to […]. The gas temperature was set to 120° C. Budesonide particles were collected the ultrasonic chamber connected to the end of high performance cyclone separator. In order to apply ultrasound to the spray dried particles, the collection ultrasonic chamber was filled with heptane thermoregulated at 25° C. and was fitted with an ultrasonic probe resonating at 20 kHz. Ultrasound at 20 W power was applied between 30 minutes and 1 hour. The resulting particle slurry was spray dried and particles characterized by optical microscopy and DSC (Differential Scanning calorimetry). The size of the particles were typically in the range of 1-7 μm.
The D(10), D(50), D(90) for two representative samples were 1.21, 3.03, 4.63 μm and 1.05, 2.99, 3.76 μm respectively as determined by Sympatec HELOS laser diffraction. […]

[2] = Specific surface area by five-point BET nitrogen adsorption
Protocol: The surface roughness and surface area of micronized Fluticasone Propionate (FP), sample 3 of FP prepared by the current invention and sample 4 of FP, as described in Example 2, were determined using atomic force microscopy (AFM) and BET surface area analysis, respectively. The roughness of imaged areas was quantified using the mean (Ra) and root mean square (Rq) of the variations in the height of the imaged surface. Furthermore, the surface area of samples was determined by a five-point BET nitrogen adsorption analysis. The specific surface areas of the FP samples were measured using a Gemini 2360 surface area analyser (Micromeritics Instrument Corporation, Norcross, USA). A five-point BET nitrogen adsorption analysis was carried out after degassing the samples for 24 hours in a FlowPrep 060 degasser (Micromeritics Instrument Corporation, Norcross, USA).

[3] = Aerosolisation efficiency of 500/25 FP/SX combination DPI formulation, NGI via Cyclohaler; conditions: 500/25 formulation
Protocol: Following content uniformity testing, […] of the blend containing the FP sample 3 blend or Advair was loaded into size 3 hydroxypropylmethyl cellulose capsules (HPMC, Shionogi Qualicaps S A, Basingstoke, UK). The capsules were stored at 44% RH for 24 h prior to in vitro performance testing.
Testing was performed using a Next Generation Impactor (NGI) with pre-separator, which was connected to a vacuum pump (GE Motors). Prior to testing, the pre-separator was filled with 15 ml of mobile phase and the cups of the NGI cups were coated with 1% v/v silicone oil in hexane to eliminate particle bounce.
For each experiment, two individual capsules of the same formulation were discharged into the NGI at 90 Lpm for 2.8 s via a Cyclohaler (TEVA Pharmaceuticals, Netherlands) to ensure both devices were operated such that 4 kPa pressure drop was generated.
Following aerosolization, the NGI apparatus was dismantled and the inhaler, capsules and each part of the NGI was washed down into known volumes of HPLC mobile phase. The mass of drug deposited on each part of the NGI was determined by HPLC. This protocol was repeated three times for each blend, following which, the fine particle dose (FPD) and fine particle fraction of the loaded dose (FPFLD) were determined. The FPD represented the mass of drug that was collected on stages 3-8 of the NGI.

[4] = pMDI formulation, particle fraction distribution on NGI stages; conditions: stage 5 cut-off 1.36 μm, listed as micronized material
Protocol: Both samples were produced in a similar manner to sample 2 of Example 2. Sample 1 was prepared from atomization of a 3% solution of fluticasone propionate in 20% dichloromethane in methanol (3 g in 100 ml) and Sample 5 was prepared from atomization of 3% solution in acetone (3 g in 100 ml). […] The FPF values were 11.80% and 13.80% on stage 5 for samples 5 and 1 respectively compared with 6.20% for micronized material.

[5] = Cyclohaler 90 Lpm, NGI stages 3-8

| Compound | D(10) [1] [μm] | D(50) [1] [μm] | D(90) [1] [μm] | size of the particles, typical range ([1]; after ultrasound treatment and spray drying of slurry) | Surface Area [2] [m^2/g] | fine particle fraction for SX ([3]; Cyclohaler) [%] | fine particle fraction for the engineered FP ([3]; Cyclohaler) [%] | FPD for FP [3, 5] [µg] | FPD for SX [3, 5] [µg] | FPF on stage 5 of the NGI [4] [%] |
| --- | --- | --- | --- | --- | --- | --- | --- | --- | --- | --- |
| CCC(=O)O[C@]1(C(=O)SCF)[C@H](C)C[C@H]2[C@@H]3C[C@H](F)C4=CC(=O)C=C[C@]4(C)[C@@]3(F)[C@@H](O)C[C@@]21C [Sample 2, Fluticasone propionate] | 1.35 | 3.25 | 5.63 | 1-6 μm | – | – | – | – | – | – |
| CCC(=O)O[C@]1(C(=O)SCF)[C@H](C)C[C@H]2[C@@H]3C[C@H](F)C4=CC(=O)C=C[C@]4(C)[C@@]3(F)[C@@H](O)C[C@@]21C [Sample 3, Fluticasone propionate] | 0.99 | 2.55 | 4.97 | – | 10.79 | 44 | 15.8 | 79 | 11 | – |
| CCC(=O)O[C@]1(C(=O)SCF)[C@H](C)C[C@H]2[C@@H]3C[C@H](F)C4=CC(=O)C=C[C@]4(C)[C@@]3(F)[C@@H](O)C[C@@]21C [Sample 4, fluticasone propionate, reference compound] | 1.14 | 2.67 | 5.11 | – | 7.49 | – | – | – | – | – |
| CCC(=O)O[C@]1(C(=O)SCF)[C@H](C)C[C@H]2[C@@H]3C[C@H](F)C4=CC(=O)C=C[C@]4(C)[C@@]3(F)[C@@H](O)C[C@@]21C [micronized FP, Fluticasone Propionate] | – | – | – | – | 6.55 | – | – | – | – | 6.20 |
